Source: US20120121720A1, “Modulation of Beta 2 Adrenergic Receptors by Inhibitors of EGLN3 or pVHL” (priority 2009, published 2012)

Key:
sickle cell disease = assay: Patient case example: sickle cell disease crisis; format: in vivo, human; conditions: Example XX; two units of blood, 80 ppm inhaled ethyl nitrite and 100 mg/kg DMOG
Description: A person with homozygous sickle cell disease presents in crisis. The patient complains of severe abdominal and chest pain and is somewhat disoriented. They receive two units of blood while being administered 80 ppm inhaled ethyl nitrite and 100 mg/kg of DMOG.

[1] = tested on: Chronic Obstructive Pulmonary Disease; assay: Patient case examples: Chronic Obstructive Pulmonary Disease; format: in vivo, human
Description: Patient started on DMOG at a dose of 50 mg/kg three times per day. Patient improves as evidenced by improved spirometry. A patient having Chronic Obstructive Pulmonary Disease, receiving supplemental oxygen and treated with salbutamol and prednisone is started on DMOG at a dose of 20 mg/kg three times per day.

hypertension = assay: Patient case examples: hypertension; format: in vivo, human; conditions: for Blood pressure: baseline 180/95 on hydralazine hydrochloride
Description: A person with hypertension and not responding to hydralazine hydrochloride (i.e., blood pressure 180/95). […] Patient is begun on DMOG at a dose of 30 mg/kg twice per day. Patient improves (i.e., blood pressure 160/90).
They are started on DMOG at a dose of 30 mg/kg twice per day. Patient improves. No limiting hypertension is noted.
A person with hypertension is not responding to hydralazine hydrochloride (i.e., blood pressure 180/95). […] Patient is begun on DMOG at a dose of 30 mg/kg twice per day. Patient improves (i.e., blood pressure 160/90).

muscle wasting = assay: Patient case examples: lymphoma and muscle wasting, six minute walk test; format: in vivo, human
Description: A person with lymphoma and muscle wasting. Patient is started on carvedilol at 12.5 BID and isosorbide dinitrate at 10 mg POTID. Patient is started on an intravenous formulation of DMOG at a concentration of […]. Patient's strength improves as evidenced by a six minute walk test.
A person with lymphoma and muscle wasting. Patient is started on alprenolol and isosorbide dinitrate. Patient is started on an intravenous formulation of DMOG at a concentration of 20.0 mg/mL. Patient's strength improves as evidenced by a six minute walk test.

unstable angina = assay: Patient case examples: unstable angina with nitroglycerin tolerance; format: in vivo, human; conditions: IV nitroglycerin tolerance over 48 hours
Description: A person with unstable angina on IV nitroglycerin develops tolerance over 48 hours as evidenced by recurrent chest pains despite increasing doses of drug.
A person with unstable angina on IV nitroglycerin develops tolerance over 48 hours as evidenced by recurrent chest pains despite increasing doses of drug. […] The patient improves.

asthma = assay: Patient case examples: asthma; format: in vivo, human
Description: A person with asthma, wherein symptoms are not improving despite receiving treatment with 250 ug beclomethasone taken in combination with an inhaler containing albuterol (when needed) is begun on DMOG at a dose of 20 mg/kg three times per day. Patient's asthma improves.
A person with asthma exacerbated by treatment with budesonide and formoterol at a dose per actuation of 160 and 4.5 mcg, respectively. Patient is begun on DMOG at a dose of 100 mg/kg once per day. Patient's asthma improves. EXAMPLE HI
A person with asthma exacerbated by treatment with fluticasone and salmeterol. Patient is begun on DMOG at a dose of 30 mg/kg twice per day. Patient's asthma improves.
A person with asthma exacerbated wherein symptoms are not improving despite receiving treatment with albuterol. Patient is begun on DMOG at a dose of 25 mg/kg three times per day. Patient's asthma improves.
A person with asthma exacerbated by treatment with budesonide and formoterol at a dose per actuation of 150.0 and 5.0 mcg, respectively. Patient is begun on malonic acid compound at a dose of 120 mg/kg once per day. Patient's asthma improves.

impaired sense of smell = assay: Patient case example: impaired sense of smell; format: in vivo, human; conditions: Example XXIII; after steroidal nasal spray; DMOG nasal spray 1 mg/ml
Description: DMOG is administered via nasal spray in amount 1 mg/ml. Patient sense of smell improves.

heart failure = assay: Patient case examples: heart failure (ejection fraction, dyspnea); format: in vivo, human; conditions: for Ejection fraction / Ejection fraction response: baseline 25%; for Ejection fraction: within one month
Description: The patient is started on nitroglycerin patch (Nitro-bid), 2 inches, twice a day and DMOG at a dose of 100 mg/kg once per day. Ejection fraction improves to 40% within one month.
The patient is started on nitroglycerin patch (Nitro-bid), 2 inches, twice a day and DMOG at a dose of 25 mg/kg three times per day. Ejection fraction improves to 42% within one month.
The patient is started on intravenous nitroglycerin at 20 μg per minute and DMOG at a dose of 50 mg/kg three times per day. Ejection fraction improves to 42% within one month.
A person with heart failure remains short of breath despite increasing doses of nitroglycerin.

pulmonary edema = assay: Patient case examples: pulmonary edema; format: in vivo, human; conditions: over the day
Description: A person presents complaining of shortness of breath. […] An intravenous line is inserted and the patient is started on IV infusion of […] per kilogram per minute nitroglycerin. They are also given an intravenous formulation of DMOG at a concentration of 10.0 mg/ml. Their symptoms improve over the day, during which time their arteriolar PO2 increases from 70 to 85 mm Hg.
A person presents complaining of shortness of breath. […] The patient is started on intravenous nitroglycerin at 25 μg per minute and DMOG at a dose of 25 mg/kg three times per day. Their symptoms improve over the day, during which time their arteriolar PO2 increases from 60 to 85 mm Hg.

cystic fibrosis = assay: Patient case examples: cystic fibrosis; format: in vivo, human
Description: A person with cystic fibrosis presents with hypoxemia and pulmonary hemorrhage. They are begun on ethyl nitrite 20 parts per million in nitrogen, N-acetylcysteine 50 mg/kg Q 6 hours and ascorbate IV 1 gram Q 6 hours, along with DMOG at a dose of 40 mg/kg three times per day. […] They are discharged on day 7. A person with cystic fibrosis presents with labored breathing and increased sputum production.

[2] = tested on: disorders of EXAMPLES I-XXIV; conditions: Examples I-XXIV repeated; peptide 10-100 mg orally once-, twice- or three times-daily
[3] = target: EGLN3 binding to the β2AR (Homo sapiens, UniProt P07550)

For COC(=O)CNC(=O)C(=O)OC [DMOG, dimethyloxalylglycine], the “Symptoms of sickle cell crisis” value (sickle cell disease) was “All symptoms resolve”, the “Patient outcome, spirometry” value ([1]; Example XV, after albuterol, DMOG 50 mg/kg three times per day) was “improves” and the “Need for supplemental oxygen” value ([1]; Example XVI, on supplemental oxygen, salbutamol and prednisone, DMOG 20 mg/kg three times per day) was “no longer requires supplemental oxygen”. The Blood pressure (hypertension; Example X, propranolol, DMOG 30 mg/kg twice per day) was 160/90, the Hypertension response (hypertension; Example XI, person after nitropaste, DMOG 30 mg/kg twice per day) was “improves” and the Blood pressure (hypertension; Example XIII, metoprolol, DMOG 30 mg/kg twice per day) was 160/90. The “Patient's strength, six minute walk test” value (muscle wasting; Example IX, on alprenolol and isosorbide dinitrate, intravenous DMOG formulation 20.0 mg/mL) was “improves”, the “Patient's strength, six minute walk test” value (muscle wasting; Example VIII, on carvedilol 12.5 BID and isosorbide dinitrate 10 mg, intravenous DMOG formulation 25.0 mg/m) was “improves” and the “Response to nitroglycerin after tolerance” value (unstable angina; Example XII, intravenous DMOG formulation 15.0 mg/mL) was “responds to nitroglycerin”. For the same molecule, the “Patient outcome, unstable angina” value (unstable angina; Example XIV, intravenous DMOG formulation 10.0 mg/ml) was “improves”, the “Patient's asthma” value (asthma; Example I, person not improving on 250 ug beclomethasone + albuterol inhaler, DMOG 20 mg/kg three times per day) was “improves” and the “Patient's asthma” value (asthma; Example II, person on budesonide/formoterol 160/4.5 mcg, DMOG 100 mg/kg once per day) was “improves”. The “Patient's asthma” value (asthma; Example III, person on fluticasone and salmeterol, DMOG 30 mg/kg twice per day) was “improves”, the “Patient's asthma” value (asthma; Example IV, person not improving on albuterol, DMOG 25 mg/kg three times per day) was “improves” and the Sense of smell (impaired sense of smell) was “improves”. For the same molecule, the Ejection fraction (heart failure; Example V, on carvedilol, nitroglycerin patch 2 inches twice a day + DMOG 100 mg/kg once per day) was 40%, the Ejection fraction (heart failure; Example VI, on carvedilol 50 mg BID, nitroglycerin patch 2 inches twice a day + DMOG 25 mg/kg three times per day) was 42% and the Ejection fraction (heart failure; Example VII, on carvedilol 25 mg divided BID, intravenous nitroglycerin 20 μg per minute + DMOG 50 mg/kg three times per day) was 42%. The “Symptoms of pulmonary edema” value (pulmonary edema; Example XXI, IV nitroglycerin 0.1 mg per kilogram per minute + intravenous DMOG formulation 10.0 mg/ml) was “improve”, the “Arteriolar PO2” value (pulmonary edema; Example XXI, from 70, IV nitroglycerin 0.1 mg per kilogram per minute + intravenous DMOG formulation 10.0 mg/ml) was 85 mm Hg and the “Arteriolar PO2” value (pulmonary edema; Example XXII, from 60, intravenous nitroglycerin 25 μg per minute + DMOG 25 mg/kg three times per day) was 85 mm Hg. The “Symptoms of pulmonary edema” value (pulmonary edema; Example XXII, intravenous nitroglycerin 25 μg per minute + DMOG 25 mg/kg three times per day) was “improve”, the Sputum production (cystic fibrosis; Example XIX, after HNO 10 ppm, DMOG 20 mg/kg three times per day, over two days) was “decreases in sputum production” and the “Pulmonary hemorrhage and state of health” value (cystic fibrosis; Example XVIII, ethyl nitrite 20 ppm, N-acetylcysteine 50 mg/kg Q 6 hours, ascorbate IV 1 gram Q 6 hours + DMOG 40 mg/kg three times per day, over three days) was “the hemorrhage stops and the patient reverts to normal state of health”.
With N=O [HNO] the Symptomatic status (cystic fibrosis; Example XIX, HNO 10 ppm in nitrogen) was “improvements in their symptomatic status”.
For N[C@@H](CCC(=O)N[C@@H](CSN=O)C(=O)NCC(=O)O)C(=O)O [S-nitrosoglutathione], the Dyspnea and angina (heart failure; Example XVII, short of breath despite nitroglycerin, S-nitrosoglutathione 0.1 μg/kg/min) was “improvement of dyspnea and relief of angina”.
In the case of CC(C)(C)NCC(O)c1ccc(O)c(CO)c1 (stereo not drawn) [albuterol], the “Patient outcome, COPD” value ([1]; Example XV, albuterol before DMOG) is reported as “no improvement”.
For COc1ccccc1OCCNCC(O)COc1cccc2[nH]c3ccccc3c12 (stereo not drawn) [carvedilol], the Ejection fraction response (heart failure; Example V, carvedilol before DMOG) was “without ejection fraction improving”, the Ejection fraction response (heart failure; Example VI, carvedilol 50 mg BID before DMOG) was “without ejection fraction improving” and the Ejection fraction response (heart failure; Example VII, carvedilol 25 mg divided BID before DMOG) was “without ejection fraction improving”.
With O=C(O)CC(=O)O [malonic acid compound, malonic acid] the “Patient's asthma” value (asthma; Example XXIV, on budesonide/formoterol 150.0/5.0 mcg, malonic acid compound 120 mg/kg once per day) was “improves”.
With COCCc1ccc(OCC(O)CNC(C)C)cc1 (stereo not drawn) [metoprolol] the Hypertension response (hypertension; Example XIII, metoprolol before DMOG, blood pressure 180/95) was “without improvement”.
In the case of CC(C)NCC(O)COc1cccc2ccccc12 (stereo not drawn) [propranolol], the Hypertension response (hypertension; Example X, propranolol before DMOG, blood pressure 180/95) is reported as “without improvement”.
With EAISFLLSLIDRLVLY the “Receptor expression in cells” value (β2AR) was “increases receptor expression”, the “Patient outcome in each EXAMPLE” value [2] was “exhibits improvement” and the “Binding of EGLN3 to the β2AR” value [3] was “inhibits binding”.
